# Source: US12264128B1, “Acid as an antioxidant compound” (KING FAISAL UNIVERSITY, priority 2023, dated 2025)
# Test: DPPH radical scavenging antioxidant test
# Conditions: 517 nm; for Inhibition (radical scavenging inhibition): 0.2 mL DPPH (0.75 mM), compound 3 μM in ethanol, 30 min incubation in the dark
# Procedure: The antioxidant properties of the 8-((3,4-dihydroxyphenyl)diazenyl)naphthalene-1,3-disulfonic acid were studied by adding 0.2 mL DPPH (0.75 mM)) to compound 8-((3,4-dihydroxyphenyl)diazenyl)naphthalene-1,3-disulfonic acid (III) (3 μM) in ethanol. After 30 min of incubation in the dark, the absorbance was read against a blank at 517 nm. Ascorbic acid (vitamin C) was used as standard antioxidants (positive control). A blank sample was prepared by 0.2 ml of DPPH in 3 ml ethanol. A negative control sample was run using ethanol instead of the sample. The radical scavenging inhibition was calculated using the following equation: […]
# The antioxidant activity for the synthesized compound is listed in Table 1, using Vitamin C as a reference.
SMILES,Inhibition (radical scavenging inhibition) [%],"antioxidant potential compared to vitamin C (in words) (DPPH in vitro test, vitamin C as positive control)"
"O=S(=O)(O)c1cc(S(=O)(=O)O)c2c(/N=N/c3ccc(O)c(O)c3)cccc2c1 [Product III, 8-((3,4-dihydroxyphenyl)diazenyl)naphthalene-1,3-disulfonic acid]",54,high potential as an antioxidant compared to vitamin C
"O=C1O[C@H]([C@@H](O)CO)C(O)=C1O [vit c, Ascorbic acid, reference compound]",74,–
